Laboratory results: patent US4534971A, “Complexation of anthracycline and anthraquinone antibiotics by the apo riboflavin binding protein from eggs” (Regents of the University of Minnesota, priority 1982, dated 1985)
Entries after “also recorded” stand apart in the source; their conditions may differ. Like-named read-outs stand apart in the source and are kept apart here.

Key:
[1] = target: T1, apo riboflavin binding protein from eggs (Gallus gallus, UniProt P02752); test: Titration of antibiotic with egg riboflavin binding protein; dissociation constant; design: species or system chicken
T1 construct: obtained in homogeneous form from chicken egg white; from tissue; host or cells: chicken egg white
T1 sequence (P02752 18-238): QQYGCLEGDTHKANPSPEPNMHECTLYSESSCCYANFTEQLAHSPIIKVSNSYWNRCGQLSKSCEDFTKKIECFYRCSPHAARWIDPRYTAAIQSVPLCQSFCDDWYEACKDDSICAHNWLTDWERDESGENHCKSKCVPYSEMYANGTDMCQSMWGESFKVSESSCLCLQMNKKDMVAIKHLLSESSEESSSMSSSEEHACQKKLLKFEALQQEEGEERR
Procedure: The purified protein may be stored, for example, frozen at -20° C. in 10 mM potassium phosphate, 1 mM EDTA pH 7.0 buffer, at concentrations between about 1 and 10 mM.
A working solution of adriamycin was obtained by dissolution in warm 0.035M potassium phosphate pH 7.0 buffer containing 0.15M NaCl and 0.5 mM EDTA and cooled to ambient temperature (24±2° C.). To a 3.0 mL solution containing 3 μM adriamycin was added 5.0 μL increments of a 0.49 mM binding protein solution in 10 mM potassium phosphate, 1 mM EDTA pH 7.0 buffer.
Daunomycin was dissolved in warm buffer, followed by cooling. […] AD-32 was dissolved in dimethylformamide.
The binding protein affinity of three anthracyclinones was determined: (±)-aklavinone, 7-deoxydaunomycinone and iso-7-deoxydaunomycinone. Aklavinone and 7-deoxydaunomycinone were made as concentrated solutions in dimethylformamide, and the solution concentrations determined by dilution into alcohol. Leuco iso-7-deoxydaunomycinone was dissolved in dimethylformamide and diluted into buffer. The general procedure of Example 1 was followed.
Solutions were prepared and admixed as previously described.

[2] = target: T1, apo riboflavin binding protein from eggs; test: Anaerobic dithionite redox titration of the daunomycin-binding protein complex; design: species or system chicken
Description: A further use of the antibiotic-protein complex is in redox titrations. Aqueous redox titrations of anthracyclines cannot be done. Although anthracycline glycosides are water soluble, loss of the glycoside (with its positive charge) provides the almost completely water insoluble 7-deoxyanthracyclinones. Unfortunately, glycoside loss is an integral aspect of anthracycline redox chemistry. The binding protein-anthracyclinecomplex has been used for anaerobic aqueous redox titrations. Dithionite reduction of the anthracycline glycoside provides, in a 2e^- process, the 7-deoxyanthracyclinone, via reductive elimination. The bound 7-deoxyanthracyclinone is then further 2e^- reduced to the bound hydroquinone. Semi-quinone radical intermediates are observed transiently; these are stable neither in solution nor complexed to the binding protein. Oxidation of the hydroquinone is accomplished by several reagents (oxygen, hydrogen peroxide, ferricyanide, cytochrome c). In the case of 7-deoxydaunomycinone hydroquinone, a mixture of two products is produced upon oxidation; these are the chromo 7-deoxydaunomycinone (identical to the first 2e^- reduction intermediate) and its leuco isomer, 8-acetyl-7,8,9,10-tetrahydro-5,8,12-trihydroxy-1-methoxy-6,11-napthacenedione(iso-7-deoxydaunomycinone).
An anaerobic redox titration of the daunomycin-binding protein complex was done. […]

[3] = Stability of free and binding protein-complexed compound (isomerization, light, storage); format: physicochemical
Description: Also of interest is the high affinity of the binding protein for iso-7-deoxydaunomycinone(8-acetyl-7,8,9,10-tetrahydro-5,8,12-trihydroxy-1- methoxy-6,11-napthacenedione). This compound is a kinetic product of 7-deoxydaunomycinone hydroquinone oxidation.
An anaerobic redox titration of the daunomycin-binding protein complex was done. The reducing agent used was dithionite anion. Spectrophotometric titrations were made on a Cary 219 spectrophotometer. Anaerobic titrations were done with gas tight syringes, with the deoxygenated solutions maintained under a positive pressure of O2 -free nitrogen. Dithionite was freshly prepared in O2 -free buffer and standardized by anaerobic riboflavin titration. Equilibration with dithionite is in all instances complete in seconds. […] Assignment of structure to this titration intermediate was confirmed by its isolation, and chromatographic comparison with an authentic sample. Further dithionite addition reduces the bound 7-deoxydaunomycinone to a new chromophore (λmax =407 nm). The hydroquinone is not further reduced, but is very easily oxidized upon mixing with oxidants such as oxygen, hydrogen peroxide, ferricyanide and cytochrome c. The absorption spectrum obtained following complete oxygen oxidation of the hydroquinone is different than any previous spectrum. Longer wavelength features, indicating the presence of 7-deoxydaunomycinone, are seen but a new chromophore (λmax approximately 445 nm) is also present. The structure of the compound corresponding to this chromophore is iso-7-deoxydaunomycinone on the basis of its spectroscopic data. In neutral aqueous buffer in the absence of the binding protein this compound promptly isomerizes to 7-deoxydaunomycinone (k=6×10^-4 s^-1). […] Binding protein stabilization is also reflected in an estimated 10-fold slower rate of dithionite reduction of the iso-7-deoxydaunomycinone compared to either 7-deoxydaunomycinone or daunomycin.

[4] = general procedure of Example 1, read-out: Kd (anthracycline glycosides, Examples 2-7)
[5] = spectrophotometric, solutions prepared and admixed as previously described, read-out: Kd (anthraquinones and anthraquinone-like molecules, Examples 11-15)
[6] = general procedure of Example 1, read-out: Kd (anthracyclinones, Examples 8-10)

Compound | Kd [1] | binding to the binding protein (in words) [1] | also measured
COc1cccc2c1C(=O)c1c(O)c3c(c(O)c1C2=O)C[C@@](O)(C(C)=O)C[C@@H]3O[C@H]1C[C@H](N)[C@H](O)[C@H](C)O1 [Daunomycin] | 0.4 µM | bind with an affinity hardly different than that of adriamycin | redox behaviour in titration (in words) ([2]; anaerobic, dithionite, oxidation by oxygen, hydrogen peroxide, ferricyanide, cytochrome c): first converted in a 2e^- process to 7-deoxydaunomycinone, with reductive elimination of the glycoside
COC(=O)[C@@H]1c2cc3c(c(O)c2[C@@H](O[C@@H]2O[C@@H](C)[C@H](OC)[C@@](C)(OC)[C@H]2OC)C[C@]1(C)O)C(=O)c1c(O)cc2c(c1C3=O)O[C@@H]1O[C@@]2(C)[C@H](O)[C@@H](N(C)C)[C@@H]1O [Nogalomycin] | – | All save nogalomycin bind | Kd [1, 4]: > 1000 µM
CN(C)[C@@H]1C(=O)C(C(N)=O)=C(O)[C@@]2(O)C(=O)C3=C(O)c4c(O)cccc4[C@@](C)(O)[C@H]3C[C@@H]12 [Tetracycline] | > 250 µM | neither tetracycline nor carminic acid (an insect feeding deterrent) bind | –
CC[C@@]1(O)C[C@H](O)c2c(cc3c(c2O)C(=O)c2c(O)cccc2C3=O)[C@H]1C(=O)OC (relative stereo) [(±)-Aklavinone] | 0.02 µM | both enantiomers of the racemic aklavinone (7S, 9R, 10R, and 7R, 9S, 10S) are equally well bound | –
CC(=O)[C@@]1(O)Cc2c(O)c3c(c(O)c2[C@H](O[C@H]2C[C@H](N)[C@H](O)[C@H](C)O2)C1)C(=O)c1ccccc1C3=O [7,9-Diepi-4-demethoxydaunomycin] | – | binds most tightly of all | Kd [1, 4]: 0.08 µM
CN(C)CCCN1c2ccccc2Sc2ccc(Cl)cc21 [Chlorpromazine] | – | high affinity | Kd [1, 5]: ~1 µM
COc1cccc2c(O)c3c(c(O)c12)C(=O)C1=C(C[C@@](O)(C(C)=O)CC1)C3=O [Iso-7-deoxydaunomycinone, 8-acetyl-7,8,9,10-tetrahydro-5,8,12-trihydroxy-1-methoxy-6,11-napthacenedione] | – | high affinity; also recorded: preferentially bound by the riboflavin binding protein | Kd [1, 6]: 0.02 µM; stability (in words) ([3]; complexed to the binding protein): stable in organic solvents and when complexed to the binding protein; also recorded: stable for days; stability (in words) ([3]; free compound, aqueous buffer or organic solvents): not stable in aqueous buffer to isomerization to 7-deoxydaunomycinone; also recorded: stable in organic solvents; rate constant k of isomerization to 7-deoxydaunomycinone ([3]; neutral aqueous buffer, absence of the binding protein): 0.0006 s⁻¹; slower rate of dithionite reduction compared to either 7-deoxydaunomycinone or daunomycin ([2]; binding protein stabilization, estimated): ~10 fold
CC(=O)[C@]1(O)Cc2c(O)c3c(c(O)c2[C@@H](O[C@H]2C[C@H](N)[C@H](O)[C@H](C)O2)C1)C(=O)c1ccccc1C3=O [4-Demethoxydaunomycin] | – | bind with an affinity hardly different than that of adriamycin | Kd [1, 4]: 0.3 µM
CC[C@@]1(O)C[C@H](O[C@H]2C[C@H](N(C)C)[C@H](O[C@H]3C[C@H](O)[C@H](O[C@H]4CCC(=O)[C@H](C)O4)[C@H](C)O3)[C@H](C)O2)c2c(cc3c(c2O)C(=O)c2c(O)cccc2C3=O)[C@H]1C(=O)OC [Aclacinomycin A] | 1 µM | bind with an affinity hardly different than that of adriamycin | binding to the binding protein (in words) ([1]; listed as aclacinomycin A): tight binding
COc1cccc2c1C(=O)c1c(O)c3c(c(O)c1C2=O)C[C@@](O)(C(=O)CO)C[C@@H]3O[C@H]1C[C@H](N)[C@H](O)[C@H](C)O1 [Adriamycin] | 0.5 ± 0.1 µM | good binding | –
CCCCC(=O)OCC(=O)[C@]1(O)Cc2c(O)c3c(c(O)c2[C@@H](O[C@H]2C[C@H](NC(=O)C(F)(F)F)[C@H](O)[C@H](C)O2)C1)C(=O)c1c(OC)cccc1C3=O [AD-32, N-trifluoroacetyl-14-valeryl-adriamycin] | – | binds well; also recorded: tight binding | formation of AD-32-binding protein complex ([1]; concentrated DMF solution added to slight molar excess of apo protein, approximately 20 μM each): quantitative formation of the AD-32-binding protein complex
O=C1c2c(O)ccc(O)c2C(=O)c2c(NCCNCCO)ccc(NCCNCCO)c21 [DHAQ, 1,4-dihydroxy-5,8-bis[[2-(hydroxyethyl)amino]ethyl]-9. 10-anthracenedione] | – | bound weakly | Kd [1, 5]: 60 µM
Cc1c(C(=O)O)c(O)cc2c1C(=O)c1c(O)c([C@@H]3O[C@H](CO)[C@@H](O)[C@H](O)[C@H]3O)c(O)c(O)c1C2=O [Carminic acid] | – | neither tetracycline nor carminic acid (an insect feeding deterrent) bind | Kd [1, 5]: > 250 µM
CCN(CC)CCCC(C)Nc1c2ccc(Cl)cc2nc2ccc(OC)cc12 (centres unmarked) [Quinacrine] | – | high affinity | –
Cc1cc2nc3c(=O)[nH]c(=O)nc-3n(C[C@H](O)[C@H](O)[C@H](O)CO)c2cc1C [riboflavin] | – | no compound is more tightly bound by the egg binding protein than riboflavin | –
COc1cccc2c1C(=O)c1c(O)c3c(c(O)c1C2=O)C[C@@](O)(C(C)=O)CC3 [7-Deoxydaunomycinone] | – | – | Kd [1, 6]: 0.08 µM
